Measured values published in patent US5420276A, “Analogs of oxetanyl purines and pyrimidines” (Abbott Laboratories, priority 1993, dated 1995).
Values after ≈ are worked out from the molar mass of the structure shown. Where two headings read alike, the source gives them in different places.

Columns and labels:
[1] = tested on: Herpes simplex type 2 (HSV-2) strain MS; assay: CPE-inhibition assay, herpes simplex type 2 strain MS in Vero cells; assay type: cell-based, herpes simplex virus type 2
Method: (§1) The challenge viruses were propagated and assayed in cells that were pregrown as monolayer cultures in plastic tissue culture flasks and 96-well plates, using cell culture media appropriate for the host cell cultures. The following viruses and host cell cultures were employed:
(§2) green monkey kidney (Vero)
(§3) On the day of use, a weighed sample of each compound to be evaluated was dissolved and diluted in serial 10^0.5 dilutions in the culture medium appropriate for each virus-host cell system.
(§4) Mammalian cells were pregrown as monolayers in wells of COSTAR 96-well tissue culture plates using suitable cell culture media. Stock viruses were pretitered according to the method of Reed and Muench (Amer. J. Hyg. 27:493-497, 1938) and diluted in cell culture medium to yield 32 CCID50 (cell culture infectious dose, 50%) units per 0.1 ml. Antiviral assays were designed to test seven concentrations of each compound, from cytotoxic to noncytotoxic levels, in triplicate against each of the challenge viruses in microtiter plate wells containing suitable cell monolayers. To each of the replicate cell cultures were added 0.1 ml of the test drug solution and 0.1 ml of virus suspension. Cell controls containing medium alone, virus controls containing medium and virus, and drug cytotoxicity controls containing medium and each drug concentration were run simultaneously with the test samples assayed in each experiment. […] The cell monolayers were examined microscopically for virus-induced CPE and for drug cytotoxicity.
(§5) Antiviral activity was determined by calculating the degree of inhibition of virus-induced CPE in drug-treated, virus-infected cell cultures by means of a virus rating (VR). The VR is a standard weighted measurement of antiviral activity taking into account both the degree of CPE inhibition and drug cytotoxicity, and is determined by a modification of the method of Ehrlich et al. (Ann. N.Y. Acad. Sci. 130: 5-16, 1965) as described below. CPE was graded for each individual culture in each microtiter plate well according to the following scale:
(§6) 4=100% of the cells affected by virus;
(§7) 3=75% of the cells affected by virus;
(§8) 2=50% of the cells affected by virus;
(§9) 1=25% of the cells affected by virus;
(§10) 0=No CPE; normal cell monolayer.
(§11) The VR was calculated as 0.1 of the sum of the numerical differences between the recorded CPE grade of each test well and that of the corresponding virus control in the culture plate. Numerical differences between the scores of test wells containing a drug concentration which was partially cytotoxic (p) and their corresponding virus controls were halved.
(§12) The minimum inhibitory drug concentration which reduced the cytopathogenic effect (CPE) by 50% (MIC50) was calculated by using a regression analysis program for semilog curve fitting. A therapeutic index (TI) for each active compound for each susceptible virus was determined by dividing the minimum cytotoxic concentration of the test compound by the MIC50.

[2] = MTT test compound cytotoxicity in human foreskin fibroblasts; assay type: cell-based; settings: hff cells, read-out: MTT assay (Percent of control)
Method: (§13) For the plaque reduction assay, sixth to twelfth passage human foreskin fibroblasts were seeded in wells of 12-well tissue culture plates and incubated at 37° C. in a humidified atmosphere containing 2% CO2 in air. Subconfluent HFF were rinsed with MEM and exposed to 0.5 ml/well of a suspension of VZV diluted in MEM+2% FBS for 2 hours at 37° C. Following the virus adsorption period, the inocula were removed and the infected cell layers were rinsed with MEM. Triplicate VZV-infected cell culture wells were treated with 1.0 ml of each concentration of test compound (in MEM+2% FBS). Six untreated virus-infected cell cultures and triplicate untreated uninfected cell cultures were fed with 1.0 ml of MEM+2% FBS to serve as controls. Wells containing uninfected HFF were treated with each concentration of test compound to monitor the test compound cytotoxicity. The 12-well plates were incubated at 37° C. in the CO2 incubator. At 48 hours post-virus infection (p.i.), fluids in all plate wells were replaced with fresh test compound and/or culture medium.
The test compound cytotoxicity control cultures were examined microscopically for gross morphologic changes, then treated with MTT and 30% SDS. The blue color of the MTT formazan was measured spectrophotometrically at 570 nm. Test compound cytotoxicity was determined by comparing the absorbance (O.D.) of each test compound control with the mean O.D. of the cell control cultures and expressed as percent of control.

[3] = Drug cytotoxicity in Vero cells (microscopic, CPE-inhibition assay); assay type: cell-based; settings: african green monkey, minimum drug concentration causing any cytotoxicity, read-out: MTC
Method: as §4, §5, §12

[4] = tested on: Herpes simplex type 1 (HSV-1) strain E-377; assay: CPE-inhibition assay, herpes simplex type 1 strain E-377 in Vero cells; assay type: cell-based, herpes simplex virus type 1
Method: as §1, §2, §3, §4, §5, §6, §7, §8, §9, §10, §11, §12

[5] = tested on: Varicella-Zoster Virus (VZV) clinical isolate DM625; assay: VZV plaque reduction assay; assay type: cell-based; settings: Human alphaherpesvirus 3, 144 h, VZV in HFF; for EC50: minimum concentration required to inhibit plaque formation by 50%, read-out: MIC50
Method: The compounds of the invention were evaluated for selective activity against varicella zoster virus (VCV) utilizing a plaque reduction assay procedure. The challenge virus was a clinical isolate designated DM625, obtained from Dr. Richard Whitley of the University of Alabama Hospitals, Birmingham, Ala. The virus had been passaged and titrated in cultures of human foreskin fibroblasts (HFF).
as §13
Six days p.i., the VZV plaques were counted (unstained, low magnification).The effect of each concentration of test compound on plaque formation was determined by comparing the mean number of plaques in the replicate test compound-treated cultures with the mean plaque counts of the untreated virus control cultures.
The MIC50 value is the minimum concentration of test Compound required to inhibit plaque formation by 50%.

in vitro = assay type: cell-based, African green monkey; settings: monkey, vero cells
Method: (§14) Vero cell monolayers were harvested by trypsinization. The number of viable cells per ml. was determined by staining an aliquot with trypan blue and counting in a hemocytometer. Cell densities were adjusted in growth medium to contain 4×10^5 cells/mi. 96-well sterile tissue culture plates were seeded with 100 μl/well of the adjusted cell suspensions, i.e., 4×10^4 cells/well. Seeded plates were incubated overnight at 37° C. with CO2.
(§15) After overnight incubation, monolayers were approximately confluent. The growth medium was removed and the monolayers in each cell were infected with 100 μl of virus diluted in maintenance medium to produce approximately 90% cytopathogenic effect (CPE) after 2 to 3 days incubation. The virus was allowed to adsorb for 1 hour at 37° C. with 4 to 6% CO2. Controls for cell growth were overlayed with virus-free maintenance medium. The maintenance medium containing residual virus was removed.
(§16) The test compounds were dissolved and/or diluted in maintenance medium to the concentration desired for testing and were added to the wells of the plate. Aliquots (100 μl ) of each concentration were added to wells in replicate (duplicate or triplicate). Controls for virus activity were overlayed with drug-free maintenance medium. Replicate wells containing only maintenance medium served as controls for background absorbance levels.
After incubation, the medium was removed from all the wells. 100 μl of neutral red solution was added to each well and the plate was incubated at 37° C. without CO2 for 2 hours. After the 2 hour incubation, the excess neutral red solution was removed. The plates were washed with 100 μl/well of PBS, pH 7.2 and then the PBS was removed.
The neutral red stain taken up by the viable cells was extracted by adding 100 μl/well of acidified methanol, pH 1.0. (The acidified methanol fixed the cells to the well). The plate was allowed to stand at room temperature for at least 15 minutes to allow for maximum extraction. The amount of neutral red stain extracted into the methanol was quantified by determining the absorbance at a wavelength of 540 nm. […]

[6] = tested on: Herpes Simplex Virus Type 1; assay: Neutral red dye uptake assay for antiviral activity, HSV-1 in Vero cells; assay type: cell-based; settings: Human alphaherpesvirus 1, HSV-1, Vero, concentration at which 50% CPE would be observed, read-out: MIC50
Method: as §14, §15, §16
After incubation, the medium was removed from all the wells. 100 μl of neutral red solution was added to each well and the plate was incubated at 37° C. without CO2 for 2 hours. After the 2 hour incubation, the excess neutral red solution was removed. […]
The neutral red stain taken up by the viable cells was extracted by adding 100 μl/well of acidified methanol, pH 1.0. […] The amount of neutral red stain extracted into the methanol was quantified by determining the absorbance at a wavelength of 540 nm.
The percent CPE in virus controls was determined by the following formula: [formula]
The percent CPE in cells infected with virus and treated with the test compound was determined by the following formula: [formula] […]

HSV-1 (E-377) = assay: CPE inhibition assay (MTT), HSV-1 (E-377) in Vero cells; assay type: cell-based, herpes simplex virus type 1; settings: Human alphaherpesvirus 1, inhibited CPE by 50%
Method: Vero cells were pregrown as monolayers in wells of COSTAR 96-well tissue culture plates using suitable cell culture media. Stock viruses were pretitered according to the method of Reed and Muench (Amer. J. Hyg. 27 493 (1938)) and diluted in cell culture medium to yield 32 CCID50 (cell culture infectious dose, 50%) units per 0.1 mL. Antiviral assays were designed to test six concentrations of each compound, from cytotoxic to noncytotoxic levels, in triplicate against each of the challenge viruses in microtiter plate wells containing cell monolayers. To each of the replicate cell cultures were added 0.1 mL of the test-compound solution and 0.1 mL of virus suspension. Two compounds were evaluated per plate. The following controls were included:
(1) Cell controls containing cells+medium;
(2) Untreated, virus-infected cell controls;
(3) Test-compound cytotoxicity controls containing uninfected, test-compound treated cells;
(4) Test-compound color controls-test-compound+medium (no cells); and
(5) Reagent (experiment medium) controls-medium only (no cells).
The covered plates were incubated at 37° C. in a humidified atmosphere containing 2% CO2. When cytopathogenic effect (CPE) in untreated virus control wells reached 100%, 20 μL of 3-(4,5-dimethyl-thiazol-2-yl)-2,5-diphenyl tetrazolium bromide (MTT) (dissolved in PBS at 5 mg/mL) was pipetted into each of the plate wells. The plates were incubated at 37° C. for six hours; then 40 μL of 30% SDS (in 0.02N HCl) was added to each well. After overnight incubation at 37° C., the blue color or the MTT formazan was measured spectrophotometrically at 570 nm. The optical density (OD) value of each culture is a function of the amount of formazan produced which is proportional to the number of viable cells. A computer program was utilized to calculate the percent (CPE) reciprocal of % CPE reduction) of the virus-infected wells and % cell viability of the uninfected test-compound control wells.
The IC50 value is the minimum test-compound concentration (μg/mL) that inhibited CPE by 50% calculated by using a regression analysis program for semilog curve fitting. The TC25 value is the minimum test-compound concentration (μg/mL) that reduced cell viability by 25%.

Row | SMILES | viability at 0.1 µM [2] [%] | viability at 0.32 µM [2] [%] | viability at 1 µM [2] [%] | viability at 3.2 µM [2] [%] | inhibition at 0.032 µM [5] [%] | inhibition at 0.1 µM [5] [%] | inhibition at 0.32 µM [5] [%] | inhibition at 1 µM [5] [%] | inhibition at 3.2 µM [5] [%] | EC50 [5] [µg/mL] | other results
1 | Cc1cn([C@@H]2O[C@H](CO)[C@H]2CO)c(=O)[nH]c1=O [Example 21, 1-([2'R, 3'R, 4'S]-3',4'-Bis(hydroxymethyl)-2'-oxetanyl)5-methyluracil] | 93 | 84 | 87 | 87 | 16 | 55 | 97 | 100 | 100 | 0.09 (≈ 0.372 µM) | VR (Virus Rating) ([1]; HSV-2 (MS)): 2.9; IC50 ([1]; Human alphaherpesvirus 2, HSV-2 (MS), minimum drug concentration that inhibited the CPE by 50%, read-out: ID50 (the source's name)): 44.3 µg/mL (≈ 183 µM); MCC ([3]; HSV-1 (E-377)): 320 µg/mL; MCC ([3]; HSV-2 (MS)): > 320 µg/mL; VR (Virus Rating) ([4]; HSV-1 (E-377)): 5.9; IC50 ([4]; Human alphaherpesvirus 1, HSV-1 (E-377), minimum drug concentration that inhibited the CPE by 50%, read-out: ID50 (the source's name)): 0.2 µg/mL (≈ 0.826 µM)
2 | CCc1cn([C@@H]2O[C@H](CO)[C@H]2CO)c(=O)[nH]c1=O [Example 48, 1-([2'R, 3'R, 4'S]-3',4'-Bis(hydroxymethyl)-2'-oxetanyl)-5-ethyluracil] |  |  |  |  |  |  |  |  |  |  | CC50 (in vitro): 350 µg/mL (≈ 1370 µM); EC50 [6]: 0.06 µg/mL (≈ 0.234 µM)
3 | O=c1[nH]c(=O)n([C@@H]2O[C@H](CO)[C@H]2CO)cc1C=CCl [Example 50, 1-([2'R, 3'R, 4'S]-3',4'-Bis(hydroxymethyl)-2'-oxetanyl)-5-(2-chloro-1-vinyl)uracil] | 100 | 100 | 100 |  | 90 | 99 | 98 | 99 |  | 0.004 (≈ 0.0139 µM) | inhibition at 0.0032 µM ([5]; 0.0032 μM): 7%; inhibition at 0.01 µM ([5]; 0.01 μM): 45%; IC50 (HSV-1 (E-377)): 0.74 µg/mL (≈ 2.56 µM)
4 | CC#Cc1cn([C@@H]2O[C@H](CO)[C@H]2CO)c(=O)[nH]c1=O [Example 68, 1-([2'R, 3'R, 4'S]-3',4'-Bis(hydroxymethyl)-2'-oxetanyl)-5-propynyluracil] | 100 | 100 | 98 | 100 | 3 | 38 | 92 | 99 | 100 | 0.045 (≈ 0.169 µM) | viability at 0.032 µM ([2]; 0.032 μM): 100%
